Measured values as given in patent US20050142169A1, “Palatability enhanced composition and method for animal consumption” (priority 2003, published 2005).

System: cats
Assay: two-bowl preference test, Example 7 (Feline w/d)
Assay type: in vivo, cat
Conditions: dry wt. of kibble
Text: Finally, a commercial dry palatant enhancer (1.4% dry weight basis) was topically applied to the dry kibbles to complete the test composition.

[1] = Exp. No. 1, second set of experiments, 5 ppm
[2] = Exp. No. 2, second set of experiments, 20 ppm

With `CCC1OC(C)=C(O)C1=O` (stereo not shown) [5-methyl-2-ethyl-4-hydroxy-3(2H)-furanone] the “Intake Ratio” value (Exp. No. 1, 5 ppm) was 0.8254, the “Preference (%) control composition” value (Exp. No. 1, 5 ppm) was 12.0% and the “Preference (%) test composition” value (Exp. No. 1, 5 ppm) was 88.0%. The “Status (vs. control)” value (Exp. No. 1, 5 ppm) was “Win”, the “Intake Ratio” value [1] was 0.7476 and the “Preference (%) control composition” value [1] was 21.7%. For the same compound, the “Preference (%) test composition” value [1] was 78.3%, the “Status (vs. control)” value [1] was “Win” and the “Intake Ratio” value (Exp. No. 2, 20 ppm) was 0.9731. For the same compound, the “Preference (%) control composition” value (Exp. No. 2, 20 ppm) was 0.0%, the “Preference (%) test composition” value (Exp. No. 2, 20 ppm) was 100.0% and the “Status (vs. control)” value (Exp. No. 2, 20 ppm) was “Win”. The “Intake Ratio” value [2] was 0.8679, the “Preference (%) control composition” value [2] was 8.0% and the “Preference (%) test composition” value [2] was 92.0%. For the same compound, the “Status (vs. control)” value [2] was “Win”.
